# Measured values as given in patent US5837282A, “Ionophore-mediated liposome loading” (priority 1996, dated 1998).
# Like-named read-outs stand apart in the source and are kept apart here.
# How the values were obtained:
# [1] = literature; cited from earlier work
# [2] = Drug uptake/leakage after removal of nigericin (spin column, dialysis)
# Experimental: Uptake was monitored for LUVs containing 300 mM K2 SO4 at a nigericin concentration of 1 ng/μmol lipid (.box-solid.), and for LUVs which were preincubated with nigericin for 5 min at 60° C., and then passed down a spin column prior to addition of the drug (.circle-solid.).
# Thus, an aliquot of nigericin (1 ng NIG/μmol lipid) was added to a sample of SPM/Chol LUVs containing 300 mm KH2 PO4 and the temperature was increased to 60° C. for 5 min to ensure association of nigericin with the lipid. The sample was then exhaustively dialysed at room temperature against 300 mM sucrose for 20 hours, following which an aliquot was passed down a spin column prior to drug loading with VINC (FIG. 10B).
# To ensure that such was not the case, control uptake experiments were performed on LUVs containing ethylammonium sulfate and amylammonium sulfate which were subjected to the same conditions.
# [3] = Fluorimetric determination of A23187 in a liposomal formulation; format: physicochemical; settings: for Amount of A23187 measured: no removal; for remaining A23187 concentration: initial 500 ng
# Experimental: The quantity of A23187 in SPM/Chol LUVs was determined by measuring the fluorescence intensity of the ionophore at an emission wavelength of 437 nm following solubilization of the liposomal formulation and complexation of the released divalent cations. Briefly, an aliquot of LUV/A23187 (corresponding to 5 μmol total lipid) was combined with a 333 mM EDTA solution (3 μL) and the volume was made up to 1 mL with ethanol:methanol (70:30 v:v). The sample was vortexed until clear, and the fluorescence intensity was measured. Calibration standards were prepared by the addition of known aliquots of A23187 to a 1 mL solution consisting of ethanol:methanol (70:30 v:v) and containing 5 mM total lipid.
# As mentioned above, the concentration of A23187 in LUVs can be quantitated using a fluorimetric assay which allows determination of the amount remaining following various purification procedures. The results are given in Table 5 for SPM/Chol LUVs initially containing A23187 at a concentration of 0.1 μg/μmol lipid. For sample 1 (S1), 146 ng of A23187 was added to the LUVs, and 123 ng was measured by the assay.
# [4] = Pressman, cited from earlier work
# [5] = large Mn2+ gradient still present; Erdahl et al.; cited from earlier work
# [6] = Deamer et al.; cited from earlier work
# [7] = Transmembrane ΔpH measured with [14C]methylamine after vincristine uptake; format: physicochemical; settings: DSPC/Chol LUVs; 300 mM K2-tartrate pH 7.4; nigericin 1 ng/μmol lipid; external HEPES-buffered sucrose pH 5.3-6.3
# Experimental: Uptake of VINC in response to transmembrane gradients of K2 -tartrate has also been investigated in DSPC/Chol LUVs (Table 2). […] The ionophore concentration was 1 ng NIG/μmol lipid.
# [8] = Vincristine uptake (loading) into LUVs using A23187 / Mn2+ systems; format: physicochemical; settings: SPM/Chol LUVs, 300 mM MnSO4, 60 °C; for %-uptake / Retention: D/L 0.05, A23187 0.1 μg/μmol lipid
# Experimental: (§1) [^14 C]CIPRO was diluted with cold CIPRO and the specific activity was determined by liquid scintillation counting and absorbance spectroscopy. […] For experiments involving [^14 C]CIPRO, the lipid mixtures were labeled using trace amounts of [^3 H]CHE. For [^3 H]VINC uptake the lipid was labeled with [^14 C]CHE. Lipid specific activities were determined by liquid scintillation counting and by quantification of phospholipid via phosphate assays.
# Excellent uptake and retention of VINC can also be obtained using Mn^2+ /A23187 with SPM/Chol LUVs (see FIG. 8). Less than 5% uptake was observed when there was no EDTA present in the external medium of Hepes-buffered sucrose (pH 7.5). […] However, extremely poor uptake (40%) is observed at lower external pHs when using 300 mM sucrose 3 mM EDTA.
# [9] = Vincristine uptake (loading) into LUVs using nigericin/K+ systems; format: physicochemical; settings: 60 °C
# Experimental: as §1
# As with CIPRO, no uptake was observed prior to the addition of nigericin (arrow). […] A further improvement was obtained (93-95%) for LUVs prepared in 300 mM K2 SO4 pH 7.4 with an external pH of 6 (either 20 mM HEPES 300 mM sucrose or 20 mM MES 300 mM sucrose) (see FIG. 9B).
# [10] = In vitro drug leakage from LUVs in 50% mouse serum at 37 °C; format: in vitro ADME; settings: SPM/Chol LUVs
# Experimental: In this assay, equal volumes of the liposomal drug formulation and of mouse serum are combined in a test tube and incubated at 37° C. Leakage of the drug from the LUVs is assayed by removal of aliquots for spin column analysis.
# An in vitro leakage assay has been designed which employs mouse serum to assess the relative retentive properties of the various liposomal systems. The assay is extremely simple, involving the incubation of equal volumes of mouse serum and LUV (loaded with drug) at 37° C., followed by the application of aliquots to spin columns to quantitate the change in D/L ratio with time.
# in vivo = settings: mouse, iv; for half-life: 2 mg/kg
# Experimental: Lipid was measured using [^14 C]cholesteryl hexadecyl ether as a tracer. The %-retention is defined as the D/L ratio at time t divided by the initial measured drug to lipid ratio.
# SPM/Chol vesicles (100 nm) were used (55:45; mole %). The vesicles were prepared in a 300 mM K2 SO4 solution or 300 mM MnSO4 and the external medium was exchanged with 300 mM sucrose, 20 mM HEPES, pH 7.0 by overnight dialysis. […] Uptake of the drug was accomplished in the following manner: to an aliquot of liposomes was added either nigericin (1 ng per μmol of lipid) or A23187 (0.1 ,μg/μmol lipid) along with an appropriate amount of drug. For the A23187 experiments, EDTA was present in the external medium at 30 mM.
# Each mouse was injected via a lateral tail vein with 200 μL total volume. […] At varying time points, mice were anaesthetized and blood was collected via cardiac puncture. Blood was immediately centrifuged at 500 g and plasma was collected for lipid and drug determination.
# Each drug was loaded using several methods, and was injected at time 0 into mice. At the indicated times, samples were withdrawn and the D/L ratio of the recovered LUVs was determined.
# [11] = external 300 mM sucrose + 3 mM EDTA
# [12] = SPM/Chol LUVs, 300 mM KH2PO4, D/L 0.05 wt:wt, nigericin 1 ng/μmol lipid, external 300 mM sucrose
compound,measurement,setting,value
COc1cccc2c1C(=O)c1c(O)c3c(c(O)c1C2=O)C[C@@](O)(C(=O)CO)C[C@@H]3O[C@H]1C[C@H](N)[C@H](O)[C@H](C)O1 [doxorubicin],effect of encapsulation on drug toxicity (particularly acute cardiotoxicity),[1],can decrease drug toxicity
same,efficacy in liposomally-encapsulated formulations,[1],equal or increased efficacy
same,toxicity in liposomally-encapsulated formulations,[1],significantly reduced toxicity
amylammonium sulfate,encapsulation in control LUVs containing amine salt subjected to the same dialysis,"[2]; control LUVs, same dialysis conditions",80-95%
CNc1ccc2oc(C[C@H]3O[C@@]4(CC[C@H]3C)O[C@H]([C@H](C)C(=O)c3ccc[nH]3)[C@H](C)C[C@H]4C)nc2c1C(=O)O [A23187],Amount of A23187 measured,"[3]; S1, initial amount 146 ng, SPM/Chol LUVs",123 ng
same,remaining A23187 level,"[3]; S2, Sephadex G-50 column eluted with 300 mM sucrose, initial 109 ng",below background
same,remaining A23187 concentration,"[3]; S3, dialysis against 300 mM sucrose",below background levels
same,Amount of A23187 measured,"[3]; S4 + 45 ng A23187, initial amount 45 ng",41 ng
same,Amount of A23187 measured,"[3]; S4 + 90 ng A23187, initial amount 90 ng",94 ng
same,remaining A23187 concentration,"[3]; S4, SM-2 biobeads",below background levels
same,relative binding affinity,"[4]; Ca2+, relative to Mn2+ and Mg2+ (210:2.6:1)",2.6
same,relative binding affinity,"[4]; Mg2+, relative to Mn2+ and Ca2+ (210:2.6:1)",1
same,relative binding affinity,"[4]; Mn2+, relative to Ca2+ and Mg2+ (210:2.6:1)",210
same,divalent cation transport specificity,[4],Mn^2+ >Ca^2+ >Mg^2+
same,fraction of entrapped Mn2+ released from POPC vesicles,[5],< 1/2
"CO[C@@H]1C[C@@H](C[C@H]2CC[C@H](C)[C@H]([C@@H](C)C(=O)O)O2)O[C@]2(O[C@](C)([C@H]3CC[C@@](C)([C@@H]4O[C@@H]([C@H]5O[C@@](O)(CO)[C@H](C)C[C@@H]5C)C[C@@H]4C)O3)C[C@H]2C)[C@@H]1C [Nigericin, nigericin]",pH gradient formed across sonicated vesicle membranes,[6],2.2 units
"O=C(O)c1cn(C2CC2)c2cc(N3CCNCC3)c(F)cc2c1=O [Ciprofloxacin, ciprofloxacin]",entrapment,"[2]; SPM/Chol LUVs, 300 mM K2SO4, nigericin 1 ng/μmol lipid and drug added at same time, D/L 0.2, 60 °C, within 30 min",80%
same,"in vitro leakage rates, normal versus nigericin-reduced LUVs",[2]; not shown,identical
"CC[C@]1(O)C[C@H]2CN(CCc3c([nH]c4ccccc34)[C@@](C(=O)OC)(c3cc4c(cc3OC)N(C=O)[C@H]3[C@@](O)(C(=O)OC)[C@H](OC(C)=O)[C@]5(CC)C=CCN6CC[C@]43[C@@H]65)C2)C1 [Vincristine, vincristine]",efficacy in liposomally-encapsulated formulations,[1],equal or increased efficacy
same,toxicity in liposomally-encapsulated formulations,[1],significantly reduced toxicity
same,ΔpH present following drug uptake,[7],2.3
same,uptake,"[8]; A23187, external Hepes-buffered sucrose pH 7.5, no EDTA",Less than 5%
same,%-uptake,[8]; [11],40%
same,Retention,[8]; [11],excellent
same,Retention,[8]; external 300 mM sucrose + 20 mM HEPES 3 mM EDTA pH 7.5,excellent
same,%-uptake,[8]; external 300 mM sucrose + 20 mM HEPES 3 mM EDTA pH 7.5 (text: within one hour),> 95%
same,%-uptake,"[8]; external 300 mM sucrose + 20 mM HEPES 3 mM EDTA pH 7.5 (text: within one hour), listed as VINC",over 95%
same,Retention,"[8]; external 300 mM sucrose + 20 mM HEPES 3 mM EDTA pH 7.5, listed as VINC",Excellent
same,%-uptake,"[8]; external 300 mM sucrose, no EDTA",5%
same,Retention,"[9]; DSPC/Chol LUVs, 300 mM K2-tartrate pH 7.4, D/L 0.05 wt:wt, nigericin 1 ng/μmol lipid, external 300 mM sucrose + 20 mM HEPES pH 5.3-6.3",excellent
same,%-uptake,"[9]; DSPC/Chol LUVs, 300 mM K2-tartrate pH 7.4, D/L 0.05 wt:wt, nigericin 1 ng/μmol lipid, external 300 mM sucrose + 20 mM HEPES pH 5.3-6.3 (text: within 15 min)",85-90%
same,%-uptake,"[9]; SPM/Chol LUVs, 300 mM K2-tartrate pH 7.4, D/L 0.05 wt:wt, nigericin 1 ng/μmol lipid, external 300 mM sucrose + 20 mM MES pH 6.0",70%
same,%-uptake,"[9]; SPM/Chol LUVs, 300 mM K2HPO4, D/L 0.05 wt:wt, nigericin 1 ng/μmol lipid, external 300 mM sucrose",< 5%
same,uptake prior to the addition of nigericin,"[9]; SPM/Chol LUVs, 300 mM K2SO4",no uptake
same,Retention,"[9]; SPM/Chol LUVs, 300 mM K2SO4, external 300 mM sucrose",excellent retention
same,Retention,"[9]; SPM/Chol LUVs, 300 mM K2SO4, external HEPES-buffered sucrose pH 7.5, over 75 minutes",poor retention
same,encapsulation,"[9]; SPM/Chol LUVs, 300 mM K2SO4, nigericin 1 ng/μmol lipid, external 300 mM sucrose",~90%
same,uptake,"[9]; SPM/Chol LUVs, 300 mM K2SO4, nigericin 1 ng/μmol lipid, external HEPES-buffered sucrose pH 7.5",60%
same,%-uptake,"[9]; SPM/Chol LUVs, 300 mM K2SO4 pH 7.4, D/L 0.05 wt:wt, nigericin 1 ng/μmol lipid, external 300 mM sucrose + 20 mM HEPES or MES pH 6.0",92%
same,%-uptake,"[9]; SPM/Chol LUVs, 300 mM K2SO4 pH 7.4, D/L 0.05 wt:wt, nigericin 1 ng/μmol lipid, external 300 mM sucrose + 20 mM HEPES or MES pH 6.0, listed as VINC",93-95%
same,%-uptake,[9]; [12],80%
same,Retention,[9]; [12],excellent
same,uptake after 20 h dialysis and spin column,"[2]; SPM/Chol LUVs, 300 mM KH2PO4 (printed 300 mm), nigericin 1 ng/μmol lipid, at 1 hr",60%
same,"retention in mouse serum, K+/nigericin with phosphate or tartrate salts, or sulfate salts with external pH of 6",[10],better retention
same,"retention of drug in mouse serum, Mn2+/A23187 versus K+/nigericin system",[10],better retention
same,"retention in mouse serum, Mn2+/A23187 versus LUVs loaded using methylammonium sulfate",[10]; results not shown,similar
same,factor by which drug leakage half-lives differ (citrate vs A23187),in vivo,two
same,half-life,in vivo,6 h
same,half-life,in vivo; pH 4,8.5 h
same,"in vivo retention, A23187 versus 300 mM citrate pH 4.0",in vivo; pH 4,comparable
